The values that follow come from patent US10604535B2, “Compounds, compositions and methods” (Denali Therapeutics Inc., priority 2016, dated 2020).

For assay [1], the target named is GST-hRIPK1 (8-327) (Homo sapiens (Human), UniProt Q13546). Nature of the assay: Fluorescent Polarization Binding (FP Binding) assay.
Assay [2] has as its system FADD-deficient Jurkat cells. In words: Cellular necroptosis assay (human TNFα-induced necrosis, CellTiter-Glo). The class given is cell-based. Particulars: Homo sapiens, Jurkat, 48 h, TNFα 10 ng/mL, read-out: Cell IC50.

Chain of GST-hRIPK1 (8-327) (Q13546 8-327): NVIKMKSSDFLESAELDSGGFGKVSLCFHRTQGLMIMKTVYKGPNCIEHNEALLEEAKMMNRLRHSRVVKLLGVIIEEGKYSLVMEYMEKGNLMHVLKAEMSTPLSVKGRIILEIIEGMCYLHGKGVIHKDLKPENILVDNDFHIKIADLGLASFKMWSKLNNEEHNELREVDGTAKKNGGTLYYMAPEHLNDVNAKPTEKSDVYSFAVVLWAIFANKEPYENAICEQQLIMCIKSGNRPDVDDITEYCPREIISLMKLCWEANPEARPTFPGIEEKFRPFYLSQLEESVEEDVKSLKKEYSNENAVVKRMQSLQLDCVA

For the compound `CN1C(=O)[C@@H](NC(=O)c2nn(Cc3ccccc3F)cc2F)[C@H]2C[C@H]2c2nccnc21` [Example 179A, 4-fluoro-1-(2-fluorobenzyl)-N-((7S,7aS,8aR)-5-methyl-6-oxo-5,6,7,7a,8,8a-hexahydrocyclopropa[d]pyrazino[2,3-b]azepin-7-yl)-1H-pyrazole-3-carboxamide], the IC50 in assay [1] and in assay [2] was 0.1 to 1000 nM in each case.
With `CN1C(=O)[C@@H](NC(=O)c2nnc(C3(c4ccccc4)CC3)[nH]2)COc2ccccc21` [Example 35, (S)—N-(5-methyl-4-oxo-2,3,4,5-tetrahydrobenzo[b][1,4]oxazepin-3-yl)-5-(1-phenylcyclopropyl)-4H-1,2,4-triazole-3-carboxamide], the IC50 in assay [1] and in assay [2] was 0.1 to 1000 nM in each case.
For the compound `Cc1c(F)c(C(=O)N[C@H]2COc3ccccc3NC2=O)nn1Cc1ccccc1` [Example 45, (S)-1-benzyl-4-fluoro-5-methyl-N-(4-oxo-2,3,4,5-tetrahydrobenzo[b][1,4]oxazepin-3-yl)-1H-pyrazole-3-carboxamide], the IC50 in assay [1] and in assay [2] was 0.1 to 1000 nM in each case.
For the compound `C[C@H]1Oc2cccnc2NC(=O)[C@H]1NC(=O)c1nnc(Cc2ccccc2)[nH]1` [Example 96, 5-benzyl-N-((2R,3S)-2-methyl-4-oxo-2,3,4,5-tetrahydropyrido[3,2-b][1,4]oxazepin-3-yl)-4H-1,2,4-triazole-3-carboxamide], the IC50 in assay [1] and in assay [2] was 0.1 to 1000 nM in each case.
`CN1C(=O)[C@@H](NC(=O)c2nn(Cc3ccccc3F)cc2F)CCc2nccnc21` [Example 178A, (S)-4-fluoro-1-(2-fluorobenzyl)-N-(5-methyl-6-oxo-6,7,8,9-tetrahydro-5H-pyrazino[2,3-b]azepin-7-yl)-1H-pyrazole-3-carboxamide]: the IC50 in assay [1] and in assay [2] was 0.1 to 1000 nM each time.
On to `CN1C(=O)[C@@H](NC(=O)c2nnc([C@@H]3CCc4ccccc43)[nH]2)COc2cccnc21` [Example 54A, 5-((R)-2,3-dihydro-1H-inden-1-yl)-N—((S)-5-methyl-4-oxo-2,3,4,5-tetrahydropyrido[3,2-b][1,4]oxazepin-3-yl)-4H-1,2,4-triazole-3-carboxamide], for which the IC50 in assay [1] and in assay [2] was 0.1 to 1000 nM in each case.
Take `Cc1c(Cl)c(C(=O)N[C@H]2COc3ccccc3N(C)C2=O)nn1Cc1ccccc1` [Example 4, (S)-1-benzyl-4-chloro-5-methyl-N-(5-methyl-4-oxo-2,3,4,5-tetrahydrobenzo[b][1,4]oxazepin-3-yl)-1H-pyrazole-3-carboxamide]: the 50% inhibitory concentration (IC50) in assay [1] and in assay [2] was 0.1 to 1000 nM in each case.
Turning to `C[C@H]1Oc2cccnc2N(C)C(=O)[C@H]1NC(=O)c1cn(Cc2ccccc2)nn1` [Example 203, 1-benzyl-N-((2R,3S)-2,5-dimethyl-4-oxo-2,3,4,5-tetrahydropyrido[3,2-b][1,4]oxazepin-3-yl)-1H-1,2,3-triazole-4-carboxamide], the IC50 in assay [1] and in assay [2] was 0.1 to 1000 nM in each case.
For `C[C@H]1Oc2cccnc2N(C)C(=O)[C@H]1NC(=O)c1cc(Oc2ccccc2F)cnn1` [Example 139, N-((2R,3S)-2,5-dimethyl-4-oxo-2,3,4,5-tetrahydropyrido[3,2-b][1,4]oxazepin-3-yl)-5-(2-fluorophenoxy)pyridazine-3-carboxamide], the IC50 in assay [1] and in assay [2] was 0.1 to 1000 nM in each case.
Turning to `C[C@H]1Oc2cccnc2N(C)C(=O)[C@H]1NC(=O)c1nn(Cc2cccc(C#N)c2)cc1F` [Example 128, 1-(3-Cyanobenzyl)-N-((2R,3S)-2,5-dimethyl-4-oxo-2,3,4,5-tetrahydropyrido[3,2-b][1,4]oxazepin-3-yl)-4-fluoro-1H-pyrazole-3-carboxamide], the IC50 in assay [1] and in assay [2] was 0.1 to 1000 nM throughout.
Consider `C=C1C[C@H](NC(=O)c2cc(Cc3ccccc3)on2)C(=O)N(C)c2ccccc21` [Example 3, (S)-5-benzyl-N-(1-methyl-5-methylene-2-oxo-2,3,4,5-tetrahydro-1H-benzo[b]azepin-3-yl)isoxazole-3-carboxamide], for which the IC50 in assay [1] and in assay [2] was 0.1 to 1000 nM in each case.

For orientation: IC50 means the concentration at which inhibition is half-maximal.
